Legend:
Haemonchus contortus = Haemonchus contortus (HAEMCO) larval mortality assay; conditions: 120 h; for mortality at 20 ppm: application rate 20 ppm; for mortality at 20 ppm / mortality at 4 ppm: after 5 days, read-out: activity (percentage of larval mortality); for mortality at 4 ppm: application rate 4 ppm; for Emax at 0.8 ppm / Emax at 4 ppm / Emax at 20 ppm: comparative test, 5 dat, read-out: % Efficacy
Method: (§1) Solvent: dimethyl sulfoxide
(§2) To produce a suitable preparation of active compound, 10 mg of active compound are dissolved in 0.5 ml solvent, and the concentrate is diluted with “Ringer's solution” to the desired concentration.
Approximately 40 larvae of the red stomach worm (Haemonchus contortus) are transferred into a test tube containing compound solution.
After 5 days percentage of larval mortality are recorded. 100% efficacy means all larvae are killed, 0% efficacy means no larvae are killed.

Cooperia curticei = Cooperia curticei (COOPCU) larval mortality assay; conditions: 120 h, after 5 days, read-out: activity (percentage of larval mortality); for mortality at 20 ppm: application rate 20 ppm; for mortality at 4 ppm: application rate 4 ppm
Method: as §1, §2
Approximately 40 nematode larvae (Cooperia curticei) are transferred into a test tube containing the compound solution.
After 5 days percentage of larval mortality is recorded. 100% efficacy means all larvae are killed; 0% efficacy means no larvae are killed.

Meloidogyne incognita = Meloidogyne incognita (MELGIN) gall formation assay; format: in vivo; conditions: 336 h, application rate 20 ppm, after 14 days, salad seedlings, read-out: nematicidal activity (percentage of gall formation)
Method: Solvent: 125.0 parts by weight of acetone
To produce a suitable preparation of active compound, 1 part by weight of active compound is mixed with the stated amount of solvent, and the concentrate is diluted with water to the desired concentration.
Vessels are filled with sand, a solution of the active ingredient, a suspension containing eggs and larvae of the southern root-knot nematode (Meloidogyne incognita) and salad seeds. The salad seeds germinate and the seedlings grow. Galls develop in the roots.
After 14 days the nematicidal activity is determined on the basis of the percentage of gall formation. 100% means no galls were found and 0% means the number of galls found on the roots of the treated plants was equal to that in untreated control plants.

O=C(NCCc1cccc(-c2cncc(F)c2)c1)c1ccccc1C(F)(F)F [Example 1-3]
mortality at 20 ppm (Haemonchus contortus): 90%

Cc1nc(Cl)ccc1-c1cccc(CCNC(=O)c2ccccc2C(F)(F)F)c1 [Example 1-5]
mortality at 20 ppm (Haemonchus contortus): 90%

Cc1cc(-c2ccc(CCNC(=O)c3ccccc3C(F)(F)F)cc2)ccn1 [Example 1-11]
mortality at 20 ppm (Haemonchus contortus): 80%

O=C(NCCc1ccc(-c2ccc(C(F)(F)F)nc2)cc1)c1ccccc1C(F)(F)F [Example 1-12]
mortality at 20 ppm (Haemonchus contortus): 90% | mortality at 20 ppm (Cooperia curticei): 100%

O=C(NCCc1ccc(-c2ccncc2)cc1)c1ccccc1C(F)(F)F [Example 1-13]
mortality at 20 ppm (Cooperia curticei): 80%

O=C(NCCc1ccc(-c2cncc(F)c2)cc1)c1ccccc1C(F)(F)F [Example 1-14]
mortality at 20 ppm (Haemonchus contortus): 90% | mortality at 20 ppm (Cooperia curticei): 100%

O=C(NCCc1ccc(-c2ccc(Cl)nc2)cc1)c1ccccc1C(F)(F)F [Example 1-15]
mortality at 4 ppm (Haemonchus contortus): 90% | mortality at 20 ppm (Cooperia curticei): 100%

O=C(NCCc1ccc(-c2ccc(OCC(F)(F)F)nc2)cc1)c1cccnc1C(F)(F)F [Example 1-18]
mortality at 20 ppm (Cooperia curticei): 100%

O=C(NCCc1ccc(-c2ccc(C(F)(F)F)nc2)cc1)c1cccnc1C(F)(F)F [Example 1-19]
pest or weed control at 20 ppm (Meloidogyne incognita): 90% | mortality at 20 ppm (Cooperia curticei): 100%

Cc1ncccc1-c1ccc(CCNC(=O)c2cccnc2C(F)(F)F)cc1 [Example 1-21]
mortality at 20 ppm (Cooperia curticei): 100%

Cc1occc1-c1ccc(CCNC(=O)c2cccnc2C(F)(F)F)cc1 [Example 1-23]
mortality at 20 ppm (Cooperia curticei): 80%

O=C(NCCc1ccc(-c2ccnc(Cl)c2)cc1)c1cccnc1C(F)(F)F [Example 1-26]
mortality at 20 ppm (Cooperia curticei): 90%

O=C(NCCc1ccc(-c2ccnc(F)c2)cc1)c1cccnc1C(F)(F)F [Example 1-27]
mortality at 20 ppm (Haemonchus contortus): 80% | mortality at 20 ppm (Cooperia curticei): 80%

O=C(NCCc1ccc(-c2cnccc2Cl)cc1Cl)c1ccccc1C(F)(F)F [Example 1-31]
mortality at 20 ppm (Cooperia curticei): 100%

O=C(NCCc1ccc(-c2ccc(OCC(F)(F)F)nc2)cc1Cl)c1ccccc1C(F)(F)F [Example 1-32]
mortality at 20 ppm (Haemonchus contortus): 90% | mortality at 20 ppm (Cooperia curticei): 100%

O=C(NCCc1ccc(-c2ccnc(F)c2)cc1Cl)c1ccccc1C(F)(F)F [Example 1-34]
mortality at 20 ppm (Cooperia curticei): 100%

O=C(NCCc1ccc(-c2ccoc2)cc1Cl)c1ccccc1C(F)(F)F [Example 1-35]
mortality at 20 ppm (Haemonchus contortus): 100% | Emax at 0.8 ppm (Haemonchus contortus): 80% | Emax at 4 ppm (Haemonchus contortus): 90% | Emax at 20 ppm (Haemonchus contortus): 100% | mortality at 20 ppm (Cooperia curticei): 100%

O=C(NCCc1ccc(-c2ccncc2)cc1Cl)c1ccccc1C(F)(F)F [Example 1-36]
mortality at 20 ppm (Cooperia curticei): 80%

O=C(NCCc1ccc(-c2ccc(C(F)(F)F)nc2)cc1Cl)c1ccccc1C(F)(F)F [Example 1-38]
mortality at 20 ppm (Haemonchus contortus): 100% | Emax at 0.8 ppm (Haemonchus contortus): 100% | Emax at 4 ppm (Haemonchus contortus): 100% | Emax at 20 ppm (Haemonchus contortus): 100% | mortality at 20 ppm (Cooperia curticei): 100%

Cc1occc1-c1ccc(CCNC(=O)c2ccccc2C(F)(F)F)c(Cl)c1 [Example 1-40]
mortality at 20 ppm (Haemonchus contortus): 100% | mortality at 20 ppm (Cooperia curticei): 100%

O=C(NCCc1ccc(-c2cccc(Cl)n2)cc1Cl)c1ccccc1C(F)(F)F [Example 1-41]
mortality at 20 ppm (Haemonchus contortus): 90% | mortality at 20 ppm (Cooperia curticei): 100%

CC(C)Oc1ccc(-c2ccc(CCNC(=O)c3ccccc3C(F)(F)F)c(Cl)c2)cn1 [Example 1-43]
mortality at 20 ppm (Haemonchus contortus): 100% | Emax at 0.8 ppm (Haemonchus contortus): 100% | Emax at 4 ppm (Haemonchus contortus): 100% | Emax at 20 ppm (Haemonchus contortus): 100% | mortality at 20 ppm (Cooperia curticei): 100%

O=C(NCCc1ccc(-c2cc(Cl)nc(Cl)c2)cc1Cl)c1ccccc1C(F)(F)F [Example 1-46]
mortality at 20 ppm (Cooperia curticei): 100%

Cc1nc(C)c(-c2ccc(CCNC(=O)c3ccccc3C(F)(F)F)c(Cl)c2)s1 [Example 1-50]
mortality at 20 ppm (Cooperia curticei): 90%

O=C(NCCc1ccc(-c2ccnc(F)c2)cc1)c1ccccc1C(F)(F)F [Example 1-51]
mortality at 20 ppm (Cooperia curticei): 100%

O=C(NCCc1ccc(-c2ccoc2)cc1)c1ccccc1C(F)(F)F [Example 1-52]
mortality at 20 ppm (Cooperia curticei): 100%

O=C(NCCc1ccc(-c2cccc(Cl)n2)cc1)c1ccccc1C(F)(F)F [Example 1-55]
mortality at 20 ppm (Cooperia curticei): 100%

O=C(NCCc1ccc(-c2cccnc2Cl)cc1)c1ccccc1C(F)(F)F [Example 1-56]
mortality at 20 ppm (Haemonchus contortus): 80% | mortality at 20 ppm (Cooperia curticei): 80%

O=C(NCCc1ccc(-c2cccnc2)cc1)c1ccccc1C(F)(F)F [Example 1-57]
mortality at 20 ppm (Haemonchus contortus): 80% | mortality at 20 ppm (Cooperia curticei): 100%

O=C(NCCc1ccc(-c2ccc(OCC(F)(F)F)nc2)cc1)c1ccccc1C(F)(F)F [Example 1-58]
mortality at 20 ppm (Haemonchus contortus): 80% | mortality at 20 ppm (Cooperia curticei): 100%

Cc1occc1-c1ccc(CCNC(=O)c2ccccc2C(F)(F)F)cc1 [Example 1-59]
mortality at 20 ppm (Cooperia curticei): 100%

Cn1cc(-c2ccc(CCNC(=O)c3ccccc3C(F)(F)F)cc2)cn1 [Example 1-60]
mortality at 20 ppm (Haemonchus contortus): 80% | mortality at 20 ppm (Cooperia curticei): 100%

O=C(NCCc1ccc(-c2ccc(F)nc2)cc1)c1ccccc1C(F)(F)F [Example 1-62]
mortality at 20 ppm (Haemonchus contortus): 100% | Emax at 0.8 ppm (Haemonchus contortus): 80% | Emax at 4 ppm (Haemonchus contortus): 90% | Emax at 20 ppm (Haemonchus contortus): 100% | mortality at 20 ppm (Cooperia curticei): 100%

O=C(NCCc1ccc(-c2ccnc(Cl)c2)cc1)c1ccccc1C(F)(F)F [Example 1-64]
mortality at 20 ppm (Haemonchus contortus): 80% | mortality at 20 ppm (Cooperia curticei): 100%

O=C(NCCc1ccc(-c2ccnc(Cl)c2)cc1Cl)c1ccccc1C(F)(F)F [Example 1-65]
mortality at 20 ppm (Cooperia curticei): 90%

O=C(NCC(F)(F)c1ccc(-c2ccc(Cl)nc2)cc1Cl)c1cccnc1C(F)(F)F [Example 1-67]
mortality at 20 ppm (Haemonchus contortus): 90% | mortality at 4 ppm (Cooperia curticei): 90%

O=C(NCC(F)c1ccc(-c2ccc(C(F)(F)F)nc2)cc1Cl)c1cccnc1C(F)(F)F (centres unmarked) [Example 1-71]
mortality at 20 ppm (Haemonchus contortus): 90% | mortality at 20 ppm (Cooperia curticei): 100%

O=C(NCC(F)c1ccc(-c2ccc(C(F)(F)F)nc2)cc1Cl)c1nccnc1C(F)(F)F (centres unmarked) [Example 1-72]
mortality at 20 ppm (Haemonchus contortus): 100% | mortality at 20 ppm (Cooperia curticei): 100%

O=C(NCC(F)c1ccc(-c2cccnc2Cl)cc1Cl)c1nccnc1C(F)(F)F (centres unmarked) [Example 1-79]
mortality at 20 ppm (Haemonchus contortus): 100% | mortality at 20 ppm (Cooperia curticei): 100%

O=C(NCC(F)c1ccc(-c2cncc(Cl)c2)cc1Cl)c1cccnc1C(F)(F)F (centres unmarked) [Example 1-83]
mortality at 20 ppm (Haemonchus contortus): 100% | mortality at 20 ppm (Cooperia curticei): 100%

CC(C)Oc1ccc(-c2ccc(C(F)(F)CNC(=O)c3ccccc3C(F)(F)F)c(Cl)c2)cn1 [Example 1-91]
mortality at 20 ppm (Cooperia curticei): 100%

CC(F)(CNC(=O)c1nccnc1C(F)(F)F)c1ccc(-c2cncc(F)c2)cc1Cl (centres unmarked) [Example 1-102]
mortality at 20 ppm (Haemonchus contortus): 100% | mortality at 20 ppm (Cooperia curticei): 100%

CC(F)(CNC(=O)c1c(F)cccc1F)c1ccc(-c2cncc(F)c2)cc1Cl (centres unmarked) [Example 1-103]
mortality at 20 ppm (Haemonchus contortus): 100%

O=C(NCC(F)(F)c1ccc(-c2ccc(C(F)(F)F)nc2)cc1F)c1ccccc1C(F)(F)F [Example 1-105]
mortality at 20 ppm (Cooperia curticei): 90%

COc1ccc(-c2ccc(C(F)(F)CNC(=O)c3ccccc3C(F)(F)F)c(F)c2)cn1 [Example 1-110]
mortality at 20 ppm (Haemonchus contortus): 90% | mortality at 20 ppm (Cooperia curticei): 100%

O=C(NCC(F)(F)c1ccc(-c2ccc(Cl)nc2)cc1F)c1ccccc1C(F)(F)F [Example 1-114]
mortality at 20 ppm (Haemonchus contortus): 80% | mortality at 20 ppm (Cooperia curticei): 100%

COc1cncc(-c2ccc(C(F)(F)CNC(=O)c3ccccc3C(F)(F)F)c(C(F)(F)F)c2)c1 [Example 1-121]
mortality at 20 ppm (Haemonchus contortus): 80% | mortality at 20 ppm (Cooperia curticei): 80%

O=C(NCC(F)(F)c1ccc(-c2cncc(F)c2)cc1C(F)(F)F)c1ccccc1C(F)(F)F [Example 1-122]
mortality at 20 ppm (Haemonchus contortus): 100% | mortality at 20 ppm (Cooperia curticei): 100%

O=C(NCC(F)(F)c1ccc(-c2ccc(C(F)(F)F)nc2)cc1C(F)(F)F)c1ccccc1C(F)(F)F [Example 1-124]
mortality at 4 ppm (Haemonchus contortus): 90% | mortality at 20 ppm (Cooperia curticei): 90%

CN(C)c1ccc(-c2ccc(C(F)(F)CNC(=O)c3ccccc3C(F)(F)F)c(C(F)(F)F)c2)cn1 [Example 1-125]
mortality at 20 ppm (Cooperia curticei): 80%

COc1ccc(-c2ccc(C(F)(F)CNC(=O)c3ccccc3C(F)(F)F)c(C(F)(F)F)c2)cn1 [Example 1-127]
mortality at 20 ppm (Haemonchus contortus): 100% | mortality at 20 ppm (Cooperia curticei): 100%

CC(F)(CNC(=O)c1cccnc1C(F)(F)F)c1ccc(-c2ccc(F)nc2)cc1Cl (centres unmarked) [Example 1-129]
pest or weed control at 20 ppm (Meloidogyne incognita): 100%

CC(F)(CNC(=O)c1ccccc1C(F)(F)F)c1ccc(-c2ccc(F)nc2)cc1Cl (centres unmarked) [Example 1-130, N-{2-[2-chloro-4-(6-fluoropyridin-3-yl)phenyl]-2-fluoropropyl}-2-(trifluoromethyl) benzamide]
pest or weed control at 20 ppm (Meloidogyne incognita): 100%

Cc1cc(-c2ccc(F)nc2)ccc1C(F)(F)CNC(=O)c1ccccc1C(F)(F)F [Example 1-136]
pest or weed control at 20 ppm (Meloidogyne incognita): 90%

O=C(NCC(F)(F)c1ccc(-c2ccc(F)nc2)cc1C(F)(F)F)c1cccnc1C(F)(F)F [Example 1-140]
pest or weed control at 20 ppm (Meloidogyne incognita): 90%

CN(C)c1ncc(-c2ccc(C(F)(F)CNC(=O)c3ccccc3C(F)(F)F)c(F)c2)cn1 [Example 1-146]
mortality at 20 ppm (Cooperia curticei): 100%

CN(C)c1ncc(-c2ccc(C(F)(F)CNC(=O)c3ccccc3C(F)(F)F)c(C(F)(F)F)c2)cn1 [Example 1-149]
mortality at 4 ppm (Cooperia curticei): 90%

From patent US20170044104A1, “NEW PESTICIDAL COMPOUNDS AND USES” (BAYER CROPSCIENCE AG, priority 2013, published 2017)
